The record followed here is paper doi:10.1101/2021.12.08.471775v2 (biorxiv, 2022).

This experiment addresses α4β2Rs (rat α4β2 nAChRs) (Rattus norvegicus, UniProt P09483+P12390). The class given is cell-based.

Structures are written as SMILES.

Chain of α4β2Rs (rat α4β2 nAChRs) (P09483 31-630): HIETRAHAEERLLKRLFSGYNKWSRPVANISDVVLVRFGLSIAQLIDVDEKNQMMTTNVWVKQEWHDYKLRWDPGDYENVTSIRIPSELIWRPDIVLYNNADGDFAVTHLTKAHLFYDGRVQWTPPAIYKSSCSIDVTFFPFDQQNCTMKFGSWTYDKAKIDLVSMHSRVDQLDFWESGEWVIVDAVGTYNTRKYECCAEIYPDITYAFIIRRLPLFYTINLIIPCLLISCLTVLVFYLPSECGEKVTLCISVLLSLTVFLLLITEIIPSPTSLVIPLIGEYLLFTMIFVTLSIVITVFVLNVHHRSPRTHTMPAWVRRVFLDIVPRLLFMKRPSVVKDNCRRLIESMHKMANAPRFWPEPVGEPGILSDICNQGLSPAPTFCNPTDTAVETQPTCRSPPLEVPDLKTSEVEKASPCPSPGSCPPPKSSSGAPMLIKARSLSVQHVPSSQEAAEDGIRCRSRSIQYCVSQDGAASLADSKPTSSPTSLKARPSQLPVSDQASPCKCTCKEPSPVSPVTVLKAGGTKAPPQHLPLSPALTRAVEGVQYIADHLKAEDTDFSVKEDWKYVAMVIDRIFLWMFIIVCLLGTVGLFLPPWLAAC
Chain of α4β2Rs (rat α4β2 nAChRs) (P12390 25-500): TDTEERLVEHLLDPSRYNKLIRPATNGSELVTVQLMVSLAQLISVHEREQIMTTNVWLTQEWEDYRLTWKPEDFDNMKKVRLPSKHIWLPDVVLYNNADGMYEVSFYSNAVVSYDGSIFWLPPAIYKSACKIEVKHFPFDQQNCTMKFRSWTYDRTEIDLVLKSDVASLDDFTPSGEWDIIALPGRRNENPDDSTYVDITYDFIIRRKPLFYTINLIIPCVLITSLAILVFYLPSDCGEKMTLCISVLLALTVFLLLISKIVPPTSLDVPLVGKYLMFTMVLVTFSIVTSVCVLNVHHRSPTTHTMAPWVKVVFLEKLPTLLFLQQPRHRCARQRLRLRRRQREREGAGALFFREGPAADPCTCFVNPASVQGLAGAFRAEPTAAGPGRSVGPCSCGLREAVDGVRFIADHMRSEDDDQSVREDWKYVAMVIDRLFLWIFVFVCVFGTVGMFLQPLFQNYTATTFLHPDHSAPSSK

`Fc1ncccc1OC[C@@H]1C=CCN1` [Nifene] returned a Ki of 0.31 nM.
